Patent US20260365670A1, “EGFR INHIBITORS AND USES THEREOF” (DIZAL (JIANGSU) PHARMACEUTICAL CO., LTD., priority 2022, published 2026)
Where two headings read alike, the source gives them in different places.

Columns and labels:
EGFR (C797S L858R) = target: T1, EGFR (C797S L858R) (Homo sapiens, UniProt P00533, C797S/L858R); assay: Inhibition of EGFR (C797S L858R) biochemical enzymatic activity (HTRF); conditions: EGFR L858-C797S, 1 mM ATP, 1 h, room temperature, read-out: IC50 (nM) @L858-C797S
T1 construct: purchased signalchem
In short: (§1)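 Recombinant kinases phosphorylated 1 μM biotinylated TK substrate with 1 mM ATP in buffer with 5 mM MgCl2, 1 mM MnCl2, 0.01% CHAPS, 1 mM DTT, 0.5% DMSO. Reaction ran 1 h at room temperature, stopped with EDTA-containing detection mix. HTRF 665/615 nm ratio gave IC50 via four-parameter logistic fit.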

EGFR Exon19Del/T790M = target: T2, EGFR Exon19Del/T790M (Homo sapiens, UniProt P00533, DEL746-750/T790M); assay: Inhibition of EGFR Exon19Del/T790M biochemical enzymatic activity (HTRF); conditions: EGFR Del19-T790M, 1 mM ATP, 1 h, room temperature, read-out: IC50 (nM) @Del19-T790M
T2 construct: purchased Carna Bio
In short: as §1

EGFR wild type = target: T3, EGFR wild type (Homo sapiens, UniProt P00533); assay: Inhibition of EGFR wild type biochemical enzymatic activity (HTRF); conditions: EGFR WT, 1 mM ATP, 1 h, room temperature, read-out: IC50 (nM) @WT
T3 construct: purchased Carna Bio
T3 sequence (P00533 25-1210): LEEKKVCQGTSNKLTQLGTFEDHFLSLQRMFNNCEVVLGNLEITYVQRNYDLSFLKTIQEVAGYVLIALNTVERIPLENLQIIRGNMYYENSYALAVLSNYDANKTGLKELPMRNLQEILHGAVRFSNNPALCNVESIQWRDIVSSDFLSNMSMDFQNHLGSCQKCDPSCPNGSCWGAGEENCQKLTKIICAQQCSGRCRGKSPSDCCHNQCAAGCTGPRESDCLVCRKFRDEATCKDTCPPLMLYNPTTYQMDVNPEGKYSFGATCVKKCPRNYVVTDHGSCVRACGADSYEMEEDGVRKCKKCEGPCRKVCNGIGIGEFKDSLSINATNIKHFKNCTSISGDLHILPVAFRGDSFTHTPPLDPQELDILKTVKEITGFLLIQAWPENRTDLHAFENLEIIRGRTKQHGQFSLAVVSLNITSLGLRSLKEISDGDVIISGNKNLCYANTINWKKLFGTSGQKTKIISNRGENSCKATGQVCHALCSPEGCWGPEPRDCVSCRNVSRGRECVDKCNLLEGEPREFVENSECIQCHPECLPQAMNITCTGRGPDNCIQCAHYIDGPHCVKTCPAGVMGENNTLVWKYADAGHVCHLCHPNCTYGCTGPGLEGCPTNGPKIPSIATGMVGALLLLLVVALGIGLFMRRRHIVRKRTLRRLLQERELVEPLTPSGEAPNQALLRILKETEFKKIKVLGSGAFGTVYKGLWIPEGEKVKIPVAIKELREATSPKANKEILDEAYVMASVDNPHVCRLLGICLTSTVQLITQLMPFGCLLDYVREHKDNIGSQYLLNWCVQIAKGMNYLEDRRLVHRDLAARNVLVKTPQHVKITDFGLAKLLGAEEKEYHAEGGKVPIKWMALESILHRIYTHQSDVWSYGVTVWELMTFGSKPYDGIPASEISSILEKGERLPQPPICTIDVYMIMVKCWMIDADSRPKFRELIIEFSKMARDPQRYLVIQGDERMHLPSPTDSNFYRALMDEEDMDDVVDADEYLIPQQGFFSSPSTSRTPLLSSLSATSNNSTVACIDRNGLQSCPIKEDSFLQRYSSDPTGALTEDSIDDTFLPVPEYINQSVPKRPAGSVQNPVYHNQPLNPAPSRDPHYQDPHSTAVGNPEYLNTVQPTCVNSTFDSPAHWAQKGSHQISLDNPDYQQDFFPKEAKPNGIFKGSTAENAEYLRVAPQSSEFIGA
In short: as §1

EGFR Exon19Del = target: T4, EGFR Exon19Del (Homo sapiens, UniProt P00533, DEL746-750); assay: Inhibition of EGFR Exon19Del biochemical enzymatic activity (HTRF); conditions: EGFR Del19, 1 mM ATP, 1 h, room temperature, read-out: IC50 @Del19
T4 construct: purchased Carna Bio
T4 sequence (P00533 with tags, fused parts or gaps DEL746-750 limits assumed): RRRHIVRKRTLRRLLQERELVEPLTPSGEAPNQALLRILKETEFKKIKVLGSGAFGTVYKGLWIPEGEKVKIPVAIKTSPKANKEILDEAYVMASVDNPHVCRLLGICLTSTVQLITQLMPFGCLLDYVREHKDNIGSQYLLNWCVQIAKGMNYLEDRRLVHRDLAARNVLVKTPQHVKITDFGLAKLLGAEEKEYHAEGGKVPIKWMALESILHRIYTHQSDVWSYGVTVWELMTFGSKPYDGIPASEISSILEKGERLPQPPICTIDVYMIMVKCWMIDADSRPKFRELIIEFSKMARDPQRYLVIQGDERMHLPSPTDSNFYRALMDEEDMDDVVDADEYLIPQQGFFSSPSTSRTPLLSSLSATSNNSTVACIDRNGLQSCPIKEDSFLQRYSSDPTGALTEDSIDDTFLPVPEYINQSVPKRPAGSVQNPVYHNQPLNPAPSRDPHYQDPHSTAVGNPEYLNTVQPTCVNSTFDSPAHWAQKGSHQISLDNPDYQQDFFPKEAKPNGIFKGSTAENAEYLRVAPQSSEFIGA
In short: as §1

EGFR (d746-750 C797S) = target: T5, EGFR (d746-750 C797S) (Homo sapiens, UniProt P00533, C797S/DEL746-750); assay: Inhibition of EGFR (d746-750 C797S) biochemical enzymatic activity (HTRF); conditions: EGFR Del19-C797S, 1 mM ATP, 1 h, room temperature, read-out: IC50 (nM) @Del19-C797S
T5 construct: purchased signalchem
In short: as §1

[1] = target: T6, EGFR[T790M/C797S/d746-750] (Homo sapiens, UniProt P00533, C797S/DEL746-750/T790M); assay: Inhibition of EGFR[T790M/C797S/d746-750] biochemical enzymatic activity (HTRF); conditions: EGFR T790M-C797S-Del19, 1 mM ATP, 1 h, room temperature, read-out: IC50 (nM) @T790M - C797S - Del19
T6 construct: purchased Carna Bio
T6 sequence (P00533 with tags, fused parts or gaps DEL746-750/T790M/C797S limits assumed): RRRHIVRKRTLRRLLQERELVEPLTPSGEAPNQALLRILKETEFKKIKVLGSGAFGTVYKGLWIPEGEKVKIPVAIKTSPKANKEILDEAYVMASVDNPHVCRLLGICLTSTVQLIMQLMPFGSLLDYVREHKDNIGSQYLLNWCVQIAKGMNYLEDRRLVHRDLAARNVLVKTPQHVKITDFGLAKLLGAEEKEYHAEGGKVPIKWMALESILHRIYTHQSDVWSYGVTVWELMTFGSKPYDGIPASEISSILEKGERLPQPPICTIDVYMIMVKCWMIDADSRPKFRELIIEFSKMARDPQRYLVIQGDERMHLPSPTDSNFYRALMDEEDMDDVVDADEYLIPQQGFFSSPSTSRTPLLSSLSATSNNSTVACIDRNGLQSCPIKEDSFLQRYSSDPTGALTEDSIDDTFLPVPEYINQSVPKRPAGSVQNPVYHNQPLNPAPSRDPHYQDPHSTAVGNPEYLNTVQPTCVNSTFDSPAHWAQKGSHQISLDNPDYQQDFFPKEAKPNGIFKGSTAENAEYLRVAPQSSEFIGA
In short: as §1

EGFR L858R/T790M = target: T7, EGFR L858R/T790M (Homo sapiens, UniProt P00533, L858R/T790M); assay: Inhibition of EGFR L858R/T790M biochemical enzymatic activity (HTRF); conditions: EGFR L858R-T790M, 1 mM ATP, 1 h, room temperature, read-out: IC50 (nM) @L858R-T790M
T7 construct: purchased Carna Bio
T7 sequence (P00533 25-1210 T790M/L858R): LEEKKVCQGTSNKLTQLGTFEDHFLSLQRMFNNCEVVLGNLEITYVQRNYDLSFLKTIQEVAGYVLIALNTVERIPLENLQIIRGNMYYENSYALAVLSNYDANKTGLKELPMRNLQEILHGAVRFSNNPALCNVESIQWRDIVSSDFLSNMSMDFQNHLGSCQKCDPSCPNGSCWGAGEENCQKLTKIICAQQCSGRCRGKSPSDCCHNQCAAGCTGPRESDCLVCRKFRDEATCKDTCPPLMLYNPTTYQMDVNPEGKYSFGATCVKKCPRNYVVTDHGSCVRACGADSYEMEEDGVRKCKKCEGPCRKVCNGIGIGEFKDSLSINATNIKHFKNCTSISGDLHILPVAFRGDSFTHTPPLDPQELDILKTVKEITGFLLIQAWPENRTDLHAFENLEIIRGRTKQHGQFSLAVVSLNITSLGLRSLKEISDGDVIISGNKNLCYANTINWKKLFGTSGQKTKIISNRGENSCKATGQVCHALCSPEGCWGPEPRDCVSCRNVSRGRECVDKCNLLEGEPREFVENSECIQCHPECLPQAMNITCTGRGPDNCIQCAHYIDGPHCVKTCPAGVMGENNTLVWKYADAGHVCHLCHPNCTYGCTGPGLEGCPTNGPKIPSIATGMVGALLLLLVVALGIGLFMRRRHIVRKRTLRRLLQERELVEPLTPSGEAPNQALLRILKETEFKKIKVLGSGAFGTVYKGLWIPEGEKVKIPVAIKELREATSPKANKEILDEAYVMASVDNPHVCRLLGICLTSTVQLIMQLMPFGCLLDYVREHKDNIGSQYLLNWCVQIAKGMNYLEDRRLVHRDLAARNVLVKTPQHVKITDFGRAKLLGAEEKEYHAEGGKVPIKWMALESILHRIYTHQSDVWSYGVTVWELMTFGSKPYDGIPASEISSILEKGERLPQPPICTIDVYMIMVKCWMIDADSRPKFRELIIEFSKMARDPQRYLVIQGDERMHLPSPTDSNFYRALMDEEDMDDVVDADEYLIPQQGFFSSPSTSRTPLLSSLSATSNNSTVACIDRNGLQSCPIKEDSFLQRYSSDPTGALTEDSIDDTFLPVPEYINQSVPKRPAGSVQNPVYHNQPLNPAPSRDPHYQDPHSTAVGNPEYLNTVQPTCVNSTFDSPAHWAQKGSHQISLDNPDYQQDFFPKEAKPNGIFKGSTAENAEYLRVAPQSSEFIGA
In short: as §1

EGFR L858R = target: T8, EGFR L858R (Homo sapiens, UniProt P00533, L858R); assay: Inhibition of EGFR L858R biochemical enzymatic activity (HTRF); conditions: 1 mM ATP, 1 h, room temperature, read-out: IC50 (nM) @L858R
T8 construct: purchased Carna Bio
In short: as §1

[2] = system: Ba/F3 cells expressing EGFR mutations; assay: Cell proliferation assay, Ba/F3 cells expressing EGFR mutations (CellTiter-Glo, 72 hours); type: cell-based; conditions: Mus musculus, BaF3, 72 h, CellTiter-Glo
In short: (§2)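 Ba/F3 cells carrying EGFR mutants (5000/well) or PC-9 cells (500/well) in RPMI1640 were dosed with compound series after overnight attachment and grown 72 h. Viability read by CellTiter-Glo, with day-0 counts subtracted; GI50 from curve fits of % proliferation versus DMSO control.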

PC-9 = assay: Cell proliferation assay, PC-9 cells (CellTiter-Glo, 72 hours); type: cell-based; conditions: Homo sapiens, PC-9, 72 h, PC9 cells, CellTiter-Glo, read-out: PC9 GI50
In short: as §2

A-431 = assay: Cell proliferation GI50, A-431 cells (Table 6); type: cell-based; conditions: Homo sapiens, A-431, A-431 cells
EGFR[T790M/C797S/L858R] = target: T9, EGFR[T790M/C797S/L858R] (Homo sapiens, UniProt P00533, C797S/L858R/T790M); assay: Inhibition of EGFR[T790M/C797S/L858R] biochemical enzymatic activity (HTRF); conditions: EGFR T790M-C797S-L858R, 1 mM ATP, 1 h, room temperature, read-out: IC50 (nM) @T790M- C797S - L858R
T9 construct: purchased Carna Bio
T9 sequence (P00533 25-1210 T790M/C797S/L858R): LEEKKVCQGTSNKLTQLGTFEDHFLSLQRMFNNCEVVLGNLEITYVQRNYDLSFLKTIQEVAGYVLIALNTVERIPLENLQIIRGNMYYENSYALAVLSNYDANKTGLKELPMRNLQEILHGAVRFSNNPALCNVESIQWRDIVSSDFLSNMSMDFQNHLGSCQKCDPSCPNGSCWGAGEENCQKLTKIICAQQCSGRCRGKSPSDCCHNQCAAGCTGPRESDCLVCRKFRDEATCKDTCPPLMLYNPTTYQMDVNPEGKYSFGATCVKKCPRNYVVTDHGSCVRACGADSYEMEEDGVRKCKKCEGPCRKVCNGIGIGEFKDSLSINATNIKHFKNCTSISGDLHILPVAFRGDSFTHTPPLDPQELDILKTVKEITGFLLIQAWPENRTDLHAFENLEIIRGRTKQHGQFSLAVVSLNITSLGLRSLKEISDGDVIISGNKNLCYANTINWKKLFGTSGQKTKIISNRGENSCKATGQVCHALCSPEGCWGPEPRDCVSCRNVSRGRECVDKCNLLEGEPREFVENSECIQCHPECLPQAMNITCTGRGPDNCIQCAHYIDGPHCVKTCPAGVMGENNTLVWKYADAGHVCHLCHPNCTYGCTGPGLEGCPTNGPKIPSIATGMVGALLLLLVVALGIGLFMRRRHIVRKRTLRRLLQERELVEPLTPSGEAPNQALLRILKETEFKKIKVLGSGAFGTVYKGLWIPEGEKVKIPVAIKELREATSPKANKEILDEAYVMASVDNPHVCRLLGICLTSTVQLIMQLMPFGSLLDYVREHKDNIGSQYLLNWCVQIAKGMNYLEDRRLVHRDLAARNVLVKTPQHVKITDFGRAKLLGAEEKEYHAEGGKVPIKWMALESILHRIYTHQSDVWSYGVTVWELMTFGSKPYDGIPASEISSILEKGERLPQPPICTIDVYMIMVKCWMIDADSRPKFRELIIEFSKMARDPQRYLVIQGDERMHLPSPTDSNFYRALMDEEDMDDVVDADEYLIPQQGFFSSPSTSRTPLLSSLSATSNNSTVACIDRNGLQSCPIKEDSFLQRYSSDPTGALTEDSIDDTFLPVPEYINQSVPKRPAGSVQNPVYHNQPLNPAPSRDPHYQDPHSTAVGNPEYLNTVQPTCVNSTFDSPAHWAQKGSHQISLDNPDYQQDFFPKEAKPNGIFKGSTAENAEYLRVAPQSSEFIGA
In short: as §1

[3] = BaF3 cells, EGFR DEL19-C797S, read-out: DEL19-C797S/BaF3 GI50
[4] = BaF3 cells, EGFR DEL19-T790-C797S, read-out: DEL19-T790-C797S/BaF3 GI50
[5] = BaF3 cells, EGFR L858R, read-out: L858R/BaF3 GI50
[6] = BaF3 cells, EGFR L858R-C797S, read-out: L858R-C797S/BaF3 GI50
[7] = BaF3 cells, EGFR L858R-T790-C797S, read-out: L858R-T790-C797S/BaF3 GI50
[8] = BaF3 cells, EGFR L858R-T790M, read-out: L858R-T790M/BaF3 GI50
[9] = EGFR DEL19-T790M, read-out: DEL19-T790M GI50

SMILES	IC50 (EGFR (C797S L858R))	IC50 (EGFR Exon19Del/T790M)	IC50 (EGFR wild type)	IC50 (EGFR Exon19Del)	IC50 (EGFR (d746-750 C797S))	IC50 [1]	IC50 (EGFR L858R/T790M)	IC50 (EGFR L858R)	GI50 [2, 3]	GI50 [2, 4]	GI50 [2, 5]	GI50 [2, 6]	GI50 [2, 7]	GI50 [2, 8]	GI50 [2, 9]	GI50 (PC-9)	GI50 (A-431)	IC50 (EGFR[T790M/C797S/L858R])
Cn1ncc2c1OCCN1CCCC(C)(C1)n1c(nc3ccc(N4CCOCC4)cc31)NC(=O)c1cc-2c(=O)n(C)c1 (stereo not drawn) [Example A10, 1,15,21-trimethyl-5-(morpholin-4-yl)-23-oxa-2,9,11,15,20,21,26-heptaazahexacyclo[24.3.1.1^{13,17}.0^{2,10}.0^{3,8}.0^{18,22}]hentriaconta-3,5,7,9,13,17(31),18(22),19-octaene-12,16-dione]	1950 nM	164 nM	> 5000 nM	189 nM	173 nM	166 nM	2630 nM	2150 nM	33 nM	368 nM	309 nM	291 nM	260 nM	219 nM	323 nM	128 nM	5140 nM	4400 nM
Cn1ncc2c1OCCN1CC(CCC1(C)C)n1c(nc3ccc(N4CCOCC4)cc31)NC(=O)c1cc-2c(=O)n(C)c1 (stereo not drawn) [Example A12, 15,21,27,27-Tetramethyl-5-(morpholin-4-yl)-23-oxa-2,9,11,15,20,21,26-heptaazahexacyclo[24.3.1.1^{13,17}.0^{2,10}.0^{3,8}.0^{18,22}]hentriaconta-3,5,7,9,13,17(31),18(22),19-octaene-12,16-dione]	389 nM	89 nM	> 5000 nM	144 nM	119 nM	105 nM	476 nM	482 nM	39 nM	265 nM	72 nM	159 nM	122 nM	116 nM	197 nM	149 nM	3130 nM	486 nM
Cn1ncc2c1OCCN1CCCCC(C)(C1)n1c(nc3ccc(N4CCOCC4)cc31)NC(=O)c1cc-2c(=O)n(C)c1 (stereo not drawn) [Example A13, 1,15,21-Trimethyl-5-(morpholin-4-yl)-23-oxa-2,9,11,15,20,21,26heptaazahexacyclo[24.4.1.1^{13,17}.0^{2,10}.0^{3,8}.0^{18,22}]dotriac onta-3,5,7,9,13,17(32),18(22),19-octaene-12,16-dione]	> 5000 nM	757 nM	> 5000 nM	932 nM	780 nM	728 nM	> 5000 nM	> 5000 nM	148 nM	192 nM	234 nM	232 nM	280 nM	411 nM	192 nM	292 nM	357 nM	> 5000 nM

Continued, values first:

IC50 (EGFR (C797S L858R))	IC50 (EGFR Exon19Del/T790M)	IC50 (EGFR wild type)	IC50 (EGFR Exon19Del)	IC50 (EGFR (d746-750 C797S))	IC50 [1]	IC50 (EGFR L858R/T790M)	IC50 (EGFR L858R)	GI50 [2, 3]	GI50 [2, 4]	GI50 [2, 5]	GI50 [2, 6]	GI50 [2, 7]	GI50 [2, 8]	GI50 [2, 9]	GI50 (PC-9)	GI50 (A-431)	IC50 (EGFR[T790M/C797S/L858R])	SMILES
> 5000 nM	132 nM	> 5000 nM	144 nM	63 nM	59 nM	> 5000 nM	> 5000 nM	57 nM	356 nM	305 nM	188 nM	459 nM	866 nM	462 nM	152 nM	2240 nM	> 5000 nM	CCn1cc2cc(c1=O)-c1cnn(C)c1OCCC[C@@H](C)Cn1c(nc3ccc(N4CCN(C)CC4)cc31)NC2=O [Example A14, (11R)-26-Ethyl-5,11-dimethyl-16-(4-methylpiperazin-1-yl)-7-oxa-4,5,13,20,22,26-hexaazapentacyclo[22.3.1.0^{2,6}.0^{13,21}.0^{14,19}]octacosa-1(28),2(6),3,14,16,18,20,24-octaene-23,27-dione]
929 nM	41 nM	> 5000 nM	54 nM	91 nM	44 nM	1140 nM	1370 nM	52.9 nM	246 nM	194 nM	169 nM	309 nM	249 nM	187 nM	565 nM	377 nM	1720 nM	CN1CCN(c2ccc3nc4n(c3c2)CC2(CCCOc3c(cnn3C)-c3cc(cn(C)c3=O)C(=O)N4)CC2)CC1 [Example A18, 5′,26′-dimethyl-16′-(4-methylpiperazin-1-yl)-7′-oxa-4′,5′,13′,20′,22′,26′-hexaazaspiro[cyclopropane-1,11′-pentacyclo[22.3.1.0^{2,6}.0^{13,21}.0^{14,19}]octacosan]-1′(28′),2′(6′),3′,14′,16′,18′,20′,24′-octaene-23′,27′-dione]
283 nM	29 nM	> 5000 nM	22 nM	19 nM	16 nM	632 nM	625 nM	6.6 nM	113 nM	147 nM	98 nM	246 nM	85 nM	85 nM	856 nM	1340 nM	214 nM	CC1CCCCOc2c(cnn2C)-c2cc(cn(C)c2=O)C(=O)Nc2nc3ccc(N4CCN(C)CC4)cc3n21 (stereo not drawn) [Example A19, 5,12,26-Trimethyl-16-(4-methylpiperazin-1-yl)-7-oxa-4,5,13,20,22,26-hexaazapentacyclo[22.3.1.0^{2,6}.0^{13,21}.0^{14,19}]octacosa-1(28),2(6),3,14,16,18,20,24-octaene-23,27-dione]
15 nM	7.3 nM	446 nM	4.6 nM	3.7 nM	7.1 nM	18 nM	37 nM	2.1 nM	22 nM	19 nM	26 nM	7.2 nM	6.7 nM	24 nM	24 nM	1110 nM	7.2 nM	CCn1ncc2c1OCCC[C@@H](C)Cn1c(nc3ccc(N4CCN(C)CC4)cc31)NC(=O)c1cc-2c(=O)n(C)c1 [Example A21, (11R)-5-ethyl-11,26-dimethyl-16-(4-methylpiperazin-1-yl)-7-oxa-4,5,13,20,22,26-hexaazapentacyclo[22.3.1.0^{2,6}.0^{13,21}.0^{14,19}]octacosa-1(28),2(6),3,14,16,18,20,24-octaene-23,27-dione]
